Experiments:
[1] = target: T1, Tissue-type plasminogen activator (Homo sapiens, UniProt P00750); assay: Ability to inhibit tissue plasminogen activator (quadratech) and S-2444 as substrate
Target sequence in this assay (P00750 whole entry): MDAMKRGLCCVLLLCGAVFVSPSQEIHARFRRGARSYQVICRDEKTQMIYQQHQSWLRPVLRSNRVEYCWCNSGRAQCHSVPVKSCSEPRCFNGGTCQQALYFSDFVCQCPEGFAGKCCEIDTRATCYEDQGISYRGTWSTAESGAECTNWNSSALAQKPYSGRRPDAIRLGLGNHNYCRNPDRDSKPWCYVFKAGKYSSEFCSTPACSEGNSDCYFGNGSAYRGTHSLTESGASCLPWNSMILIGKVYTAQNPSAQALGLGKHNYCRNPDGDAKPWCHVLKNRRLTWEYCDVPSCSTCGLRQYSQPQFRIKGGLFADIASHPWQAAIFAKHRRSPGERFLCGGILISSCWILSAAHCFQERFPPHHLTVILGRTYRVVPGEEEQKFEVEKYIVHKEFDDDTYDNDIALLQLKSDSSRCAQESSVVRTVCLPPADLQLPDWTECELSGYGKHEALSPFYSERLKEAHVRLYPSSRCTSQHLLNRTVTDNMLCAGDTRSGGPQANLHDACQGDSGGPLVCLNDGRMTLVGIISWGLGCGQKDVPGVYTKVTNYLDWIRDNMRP

Plasminogen [2] = target: T2, Plasminogen (Homo sapiens, UniProt P00747); assay: Ability to inhibit plasmin using human plasmin (quadratech) and Chromozym-PL (boehringer) as substrate
[3] = target: T1, Tissue-type plasminogen activator; assay: Ability to inhibit tissue plasminogen activator (quadratech) and S-2444 as substrate at concentration of 1 mM
Target sequence in this assay (P00750 36-562 limits assumed): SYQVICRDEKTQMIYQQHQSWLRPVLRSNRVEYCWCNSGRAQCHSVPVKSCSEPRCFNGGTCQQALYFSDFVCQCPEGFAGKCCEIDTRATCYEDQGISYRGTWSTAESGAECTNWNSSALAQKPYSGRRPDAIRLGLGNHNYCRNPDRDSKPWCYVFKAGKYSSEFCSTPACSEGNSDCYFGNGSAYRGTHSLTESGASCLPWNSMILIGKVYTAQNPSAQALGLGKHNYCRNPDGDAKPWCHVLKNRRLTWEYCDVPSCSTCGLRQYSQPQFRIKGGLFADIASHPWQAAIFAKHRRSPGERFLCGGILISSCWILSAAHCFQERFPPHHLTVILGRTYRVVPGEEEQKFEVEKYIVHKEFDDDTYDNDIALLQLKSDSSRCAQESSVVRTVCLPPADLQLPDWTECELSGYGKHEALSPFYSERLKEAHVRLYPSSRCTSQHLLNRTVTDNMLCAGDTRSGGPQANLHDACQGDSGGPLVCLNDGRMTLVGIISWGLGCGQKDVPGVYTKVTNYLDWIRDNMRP

Plasminogen [4] = target: T2, Plasminogen; assay: In vitro inhibition of human plasmin.; set-up: concentration or dose not given beside the values; conditions: concentration not given here
Plasminogen [5] = target: T2, Plasminogen; assay: Ability to inhibit human plasmin using Chromozym-PL as substrate at concentration of 1 uM
[6] = target: T1, Tissue-type plasminogen activator; assay: Ability to inhibit human tissue plasminogen activator stimulator at concentration of 1 uM
Target sequence in this assay (P00750 36-562 limits assumed): as above

[7] = target: Urokinase-type plasminogen activator (Homo sapiens, UniProt P00749); assay: In vitro inhibition of human urokinase Plasminogen Activator.
Plasminogen [8] = target: T2, Plasminogen; assay: Ability to inhibit plasmin using human plasmin (quadratech) and Chromozym-PL (boehringer) as substrate at concentration of 100 uM
[9] = target: T1, Tissue-type plasminogen activator; assay: Ability to inhibit tissue plasminogen activator (quadratech) and S-2444 as substrate at concentration of 300 uM
Target sequence in this assay (P00750 36-562 limits assumed): as above

T2 sequence (P00747 97-580 limits assumed): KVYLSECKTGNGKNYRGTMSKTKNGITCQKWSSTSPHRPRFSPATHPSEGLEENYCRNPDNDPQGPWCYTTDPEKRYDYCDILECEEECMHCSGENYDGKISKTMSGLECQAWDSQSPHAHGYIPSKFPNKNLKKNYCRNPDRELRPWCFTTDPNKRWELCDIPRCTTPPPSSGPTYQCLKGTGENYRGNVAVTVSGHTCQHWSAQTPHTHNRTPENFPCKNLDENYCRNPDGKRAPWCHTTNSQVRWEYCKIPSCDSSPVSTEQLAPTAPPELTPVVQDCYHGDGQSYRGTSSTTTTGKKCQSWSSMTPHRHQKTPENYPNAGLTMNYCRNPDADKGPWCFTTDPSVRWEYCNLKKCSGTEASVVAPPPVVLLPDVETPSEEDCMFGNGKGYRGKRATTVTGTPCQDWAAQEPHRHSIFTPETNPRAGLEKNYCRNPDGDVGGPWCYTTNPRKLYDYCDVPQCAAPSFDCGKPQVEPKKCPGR
T2 sequence (P00747 581-810 limits assumed): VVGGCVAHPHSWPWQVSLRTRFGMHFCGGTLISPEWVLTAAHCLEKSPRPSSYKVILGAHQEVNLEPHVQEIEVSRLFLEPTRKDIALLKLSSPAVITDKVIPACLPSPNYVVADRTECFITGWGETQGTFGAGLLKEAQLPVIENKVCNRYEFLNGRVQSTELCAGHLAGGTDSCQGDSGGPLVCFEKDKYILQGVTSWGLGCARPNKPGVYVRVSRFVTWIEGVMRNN

Ki [1] [µM]	inhibition [3] [%]	inhibition (Plasminogen [4]) [%]	Ki [7] [µM]	SMILES	also measured
65.9	–	–	–	N=C(N)Nc1ncc(Cl)cc1C#Cc1ccccc1	Ki (Plasminogen [2]): 218 µM
–	< 50	< 50	–	N=C(N)Nc1ncc(Cl)cc1CCC(=O)O	–
–	–	–	–	N=C(N)Nc1ncc(Cl)cc1/C=C/C(=O)O	Ki (Plasminogen [5]): 279 µM; inhibition [6]: < 50%
52	–	–	0.17	NC(N)=Nc1ncc(Cl)cc1/C=C/c1cccc(C(=O)O)c1	–
–	–	–	–	N=C(N)Nc1ncc(Cl)cc1/C=C/c1cccc(C(=O)O)c1	inhibition (Plasminogen [8]): < 50%
53.8	–	< 50	–	N=C(N)Nc1ncc(Cl)cc1/C=C/c1ccccc1	–
–	< 50	< 50	–	N=C(N)Nc1ncc(Cl)cc1OCC(=O)O	–
71.5	–	< 50	–	N=C(N)Nc1ncc(Cl)cc1/C=C/C1CCCCC1	–
258	–	< 50	1.6	N=C(N)Nc1ncc(Cl)cc1/C=C/c1ccccn1	–
–	< 50	< 50	0.92	N=C(N)Nc1ncc(Cl)cc1OCc1ccccc1	–
–	–	< 50	0.49	N=C(N)Nc1ncc(Cl)cc1/C=C/c1ccc2c(c1)OCO2	inhibition [9]: 50%
–	< 50	< 50	2	CN(Cc1ccccc1)C(=O)/C=C/c1cc(Cl)cnc1N=C(N)N	–
–	–	–	16.1	NC(N)=Nc1ncc(Cl)cc1OCC(=O)NCc1ccccc1	–
60.1	–	–	0.69	COc1ccc(/C=C/c2cc(Cl)cnc2N=C(N)N)cc1	Ki (Plasminogen [2]): 42.5 µM
–	< 50	< 50	2.1	N=C(N)Nc1ncc(Cl)cc1/C=C/C(=O)N1CCOCC1	–
342	–	< 50	2.13	N=C(N)Nc1ncc(Cl)cc1Oc1ccccc1	–
–	< 50	< 50	166	N=C(N)Nc1ncc(Cl)cc1-c1ccccc1	–
–	< 50	< 50	–	N=C(N)Nc1ncc(Cl)cc1OCC(=O)NCc1ccccc1	–
–	< 50	< 50	1.28	CNC(=O)/C=C/c1cc(Cl)cnc1N=C(N)N	–
–	< 50	< 50	16.4	COCCOc1cc(Cl)cnc1N=C(N)N	–

SMILES	Ki [1] [µM]	inhibition [3] [%]	inhibition (Plasminogen [4]) [%]	Ki [7] [µM]	also measured
N=C(N)Nc1ncc(Cl)cc1/C=C/C(=O)NCc1ccccc1	–	< 50	< 50	0.77	–
